Test results published in patent US6479527B1, “Bicyclic pyrrole derivatives as MCP-1 inhibitors” (AstraZeneca UK Limited, priority 1998, dated 2002).
Where two headings read alike, the source gives them in different places.

Legend:
[1] = tested on: RANTES induced chemotaxis of THP-1 cells; assay: RANTES chemotaxis assay; assay type: cell-based; conditions: Homo sapiens, 2 nM RANTES as chemoattractant
Description: (§1) c) hMCP-1 Mediated Chemotaxis and RANTES Assay.
(§2) In vitro chemotaxis assays were performed using either the human monocytic cell line THP-1 or peripheral blood mixed monocytes obtained from fresh human blood purified by erythrocyte sedimentation followed by density gradient centrifugation over 9.6% (w/v) sodium metrizoate and 5.6% (w/v) polysaccharide, density 1.077 g/ml (Lymphoprep™ Nycomed). Cell migration through polycarbonate membranes was measured by enumerating those passing through either directly by Coulter counting or indirectly by use of a colourimetric viability assay measuring the cleavage of a tetrazolium salt by the mitochondrial respiratory chain (Scudiero D. A. et al. 1988, Cancer Res., 48, 4827-4833).
(§3) Chemoattractants were introduced into a 96-well microtiter plate which forms the lower well of a chemotaxis chamber fitted with a PVP-free 5 μm poresize polycarbonate adhesive framed filter membrane (NeuroProbe MB series, Cabin John, Md. 20818, USA) according to the manufacturer's instructions. The chemoattractant was diluted as appropriate in synthetic cell culture medium, RPMI 1640 (Gibco) or supplemented with 2 mM glutamine and 0.5% BSA, or alternatively with HBSS with Ca2+ and Mg2+ without Phenol Red (Gibco) plus 0.1% BSA. […] The plate was incubated at 37° C. for 3 h and the absorbance of the soluble formazan product was read on a microtitre plate reader at 450 nm. […]

MCP-1 receptor B (CCR2B) = target: T1, MCP-1 receptor B (CCR2B) (Homo sapiens, UniProt P41597); assay: hMCP-1 receptor-binding assay
T1 construct: expressed in transfected cells; host or cells: CHO-K1 (clone 7, CHO-CCR2B), membrane fragments
T1 sequence (P41597 1-360 isoform P41597-2): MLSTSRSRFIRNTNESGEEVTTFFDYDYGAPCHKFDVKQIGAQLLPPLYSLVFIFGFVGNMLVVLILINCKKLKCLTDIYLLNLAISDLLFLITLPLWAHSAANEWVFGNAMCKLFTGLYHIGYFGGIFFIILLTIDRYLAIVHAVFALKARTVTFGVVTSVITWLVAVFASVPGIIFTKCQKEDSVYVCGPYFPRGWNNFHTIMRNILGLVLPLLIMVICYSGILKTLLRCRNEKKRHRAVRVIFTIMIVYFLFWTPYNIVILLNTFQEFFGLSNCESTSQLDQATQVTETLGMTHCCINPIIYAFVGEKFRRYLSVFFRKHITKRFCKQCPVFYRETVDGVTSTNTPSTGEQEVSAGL
From the text: a) hMCP-1 Receptor-binding Assay i) Clonning and expression of hMCP-1receptor
The MCP-1 receptor B (CCR^2B) cDNA was cloned by PCR from THP-1 cell RNA using suitable oligonucleotide primers based on the published MCP-1 receptor sequences (Charo et al., 1994, Proc. Natl. Acad Sci. USA, 91, 2752). The resulting PCR products were cloned into vector PCR-II™ (InVitrogen, San Diego, Calif.). Error free CCR2B cDNA was subcloned as a Hind III-Not I fragment into the eukaryotic expression vector pCDNA3 (InVitrogen) to generate pCDNA3/CC-CKR2A and pCDNA3/CCR2B respectively.
Linearised pCDNA3/CCR2B DNA was transfected into CHO-K1 cells by calcium phosphate precipitation (Wigler et al., 1979, Cell, 16, 777). Transfected cells were selected by the addition of Geneticin Sulphate (G418, Gibco BRL) at 1 mg/ml, 24 hours after the cells had been transfected. Preparation of RNA and Northern blotting were carried out as described previously (Needham et al., 1995, Prot. Express. Purific., 6, 134). CHO-K1 clone 7 (CHO-CCR^2B) was identified as the highest MCP-1 receptor B expressor. […]
ii) Preparation of membrane fragments […]
^125I MCP-1 was prepared using Bolton and Hunter conjugation (Bolton et al., 1973, Biochem. J., 133, 529; Amersham International plc]. Equilibrium binding assays were carried out using the method of Ernst et al., 1994, J. Immunol., 152, 3541. Briefly, varying amounts of ^125I-labeled MCP-1 were added to […] of purified CHO-CCR2B cell membranes in […] of Binding Buffer. After 1 hour incubation at room temperature the binding reaction mixtures were filtered and washed 5 times through a plate washer (Packard Harvester Filtermate™ 196). Scintillation fluid (25 μl, Microscint™-20, a high efficiency liquid scintillation counting cocktail for aqueous samples) was added to each well and the plate was covered with plate sealer and counted (Packard Top Count™). […] Non-specific binding was determined by the inclusion of a 200-fold molar excess of unlabelled MCP-1 in the reaction. […]

[2] = tested on: hMCP-1 mediated chemotaxis of THP-1 cells; assay: hMCP-1 mediated chemotaxis assay; assay type: cell-based, human
Description: as §1, §2, §3

THP-1 cells = assay: MCP-1 mediated calcium flux in THP-1 cells; assay type: cell-based, human; conditions: stimulation of THP-1 cells with hMCP-1, approximate, from dose response curves; read-out: EC50 for transient rise in [Ca2+]i
Description: b) MCP-1 Mediated Calcium Flux in THP-1 Cells
The human monocytic cell line THP-1 was grown in a synthetic cell culture medium RPMI 1640 supplemented with 10% foetal calf serum, 2 mM glutamine and Penicillin-Streptomycin (at 50 μg streptomycin/ml, Gibco BRL). THP-1 cells were washed in HBSS (lacking Ca^2+ and Mg^2+) +1 mg/ml BSA and resuspended in the same buffer at a density of 3×10^6 cells/ml. The cells were then loaded with […]-FURA-2/AM for 30 min at 37° C., washed twice in HBSS, and resuspended at 1×10^6 cells/ml. […] The cuvette was placed in a fluorescence spectrophotometer (Perkin Elmer, Norwalk, Conn.) and preincubated for 4 min at 37° C. with stirring. Fluorescence was recorded over 70 sec and cells were stimulated by addition of hMCP-1 to the cuvette after 10 sec. [Ca^2+]i was measured by excitation at 340 nm and 380 nm alternately and subsequent measurement of the intensity of the fluorescence emission at 510 nm.
where the Kd for FURA-2 Ca^2+ complex at 37° C. was taken to be […]. Rmax is the maximal fluorescence ratio determined after addition of […] lonomycin, Rmin is the minimal ratio determined by the subsequent addition of a Ca^2+ free solution containing 5 mM EGTA, and Sf2/Sb2 is the ratio of fluorescence values at 380 nm excitation determined at Rmin and Rmax, respectively. […]

Work on `O=C(O)c1cc2sccc2n1Cc1ccc(Cl)c(Cl)c1` [Compound No. 8, 4-(3,4-Dichlorobenzyl)thieno[3,2-b]pyrrole-5-carboxylic acid] yielded an IC50 [1] of 2660 nM.

`Nc1cccc(-c2cc3c(cc(C(=O)O)n3Cc3ccc(Cl)c(Cl)c3)s2)c1` [Compound No. 13, 2-(3-Aminophenyl)-4-(3,4-dichlorobenzyl)thieno[3,2-b]pyrrole-5-carboxylic acid] gave an IC50 (MCP-1 receptor B (CCR2B); competition with 100 pM labelled MCP-1, CHO-CCR2B cell membranes, read-out: IC50 in the hMCP-1 receptor binding assay) of 8300 nM.

With `O=C(O)c1cc2occc2n1S(=O)(=O)c1ccc(Cl)c(Cl)c1` [Compound No. 20, 4-(3,4-Dichlorobenzenesulfonyl)furo[3,2-b]pyrrole-5-carboxylic acid] the IC50 ([2]; Homo sapiens, 1 nM MCP-1 as chemoattractant, THP-1 cells) was 1660 nM.

“MCP-1: Monocyte Chemoattractant Protein-1, a C—C chemokine; ligand of the CCR2 receptor” was tested, and the IC50 (MCP-1 receptor B (CCR2B); membrane fragments from CHO-CCR2B cells, cold competition with 125I-labeled MCP-1, read-out: IC50 of MCP-1 binding to CCR2B) was 0.11 nM, the Kd (MCP-1 receptor B (CCR2B); membrane fragments from CHO-CCR2B cells, equilibrium binding) was 0.12 nM and the EC50 (THP-1 cells) was ~2 nM. For the same compound, the “concentration of maximal cell migration (biphasic response)” value ([2]; hMCP-1 as chemoattractant, concentration dependent cell migration) was 0.5-1.0 nm.
